Entries after “also recorded” stand apart in the source; their conditions may differ. Read-outs that look alike come from different tables or passages of the source.
What was measured:
RAW = experiment: uptake of IR783 in cell lines: mouse macrophages; type: cell-based
Description: (§1) The uptake of IR783 was studied and confirmed in a variety of human cell lines as shown below: […]

[1] = system: PDAC-2.3, PDAC-3.3, BTC-3, BTC-5; experiment: uptake of IR783 in cell lines: pancreatic; type: cell-based, human
Description: as §1

H358 = experiment: uptake of IR783 in cell lines: lung; type: cell-based, human
Description: as §1

P69 = experiment: uptake of IR783 in cell lines: human prostate epithelia; type: cell-based
Description: as §1

RT-4, T24, 253J, TCC = experiment: uptake of IR783 in cell lines: bladder; type: cell-based, human
Description: as §1

RCC = experiment: uptake of IR783 in cell lines: kidney; type: cell-based, human
Description: as §1

[2] = system: spontaneous prostate tumor in a TRAMP mouse; experiment: imaging of spontaneous TRAMP prostate tumor, fresh and after fixation (FIG. 16B, C); type: in vivo
Method: NIR imaging studies were performed to assess pharmacokinetics of the IR783 in vivo. […] This mouse was injected i.p with 0.2 μg/kg IR783 at 0 hrs. […] The dye retention in formalin fixed tissues can be as long as several weeks (data not shown).

[3] = system: ARCaPM, LNCaP, ARCaPE, C4-2, PC-3; experiment: uptake of IR783 in cell lines: prostate; type: cell-based, human
Description: as §1

[4] = system: subcutaneous ARCaPM tumor, intratibial C4-2 tumor; experiment: IR783 imaging of human prostate cancer xenografts in nude mice (FIG. 15); type: in vivo, mouse
Method: The mice were injected i.p with IR783 at 0.2 μg/kg. Imaging was performed 24 hours later with the Kodak multimodal-imaging system. Histopathological analysis (H/E) confirmed the presence of tumors. […] Histopathology confirmed the necrotic status of the tumors.

[5] = Method: Mice were injected with 20 μg/Kg of IR783 and IR780 (which was 100× of the imaging dose which was 0.2 μg/Kg) and results were compared for a 28 day period. […] Zero grams means the mouse died. ICG is a FDA approved dye used for several diagnostic purposes. ICG is considered to be nontoxic. ICG is used here as a measure of the toxicity of the tested compounds.
Toxicity test of dye based on body weight gained during the treatment period from 0 to 14 days.

MCF-7 = experiment: uptake of IR783 in cell lines: breast; type: cell-based, human
Description: as §1

HEK293 = experiment: uptake of IR783 in cell lines: human embryonic kidney epithelial normal cells; type: cell-based
Description: as §1

[6] = system: human renal tissues freshly obtained from surgery; experiment: staining of fresh human renal tumor specimens with IR783 (FIG. 20)
Description: The compounds of the invention can also be used to detect cancer in fresh (or frozen or preserved) cells. In one embodiment of this aspect of the invention, cells are obtained from small needle biopsy, needle aspiration, or other methods as known in the art. The cells after dye uptake is completed can be minced, sliced, smeared onto a slide, or any other preparation. An amount of one or more compound of the invention can be dropped onto the cells or otherwise contacted with the cells (shaken in a tube, for example). […] The cells can be imaged under a fluorescence microscope equipped with a NIR filter, for example.

C4-2 tumors = experiment: effect of MHI-25 on pre-established C4-2 tumors in mice (FIG. 9 bottom); type: in vivo, mouse; details: 100 nmols, Day 5 after administration
BMC = experiment: uptake of IR783 in cell lines: bone marrow stroma; type: cell-based, human
Description: as §1

SN12C, ACHN = experiment: uptake of IR783 in cell lines: renal; type: cell-based, human
Description: as §1

[7] = system: ARCaPM prostate cancer cells and P69 normal prostate epithelial cells; experiment: confocal fluorescence imaging of IR783 uptake, cancer versus normal cells (FIG. 14); type: cell-based, human
Method: After being washed in PBS to remove free dyes, the cells were subject to confocal fluorescence imaging. DAPI, added together with IR783, was used as a positive control for the staining of the cell nucleus. P69, representing normal human prostate epithelial cells, was stained in parallel. Images were acquired by Zeiss LSM 510 META confocal microscopy. […] 100 μM BSP was used to pre-incubate with ARCaPM, before 50 μM IR783 was added.

HepG2 = experiment: uptake of IR783 in cell lines: liver; type: cell-based, human
Description: as §1

HeLa = experiment: uptake of IR783 in cell lines: cervical; type: cell-based, human
Description: as §1

CC1(C)C(=CC=C2CCCC(C=CC3=[N+](CCCCS(=O)(=O)[O-])c4ccccc4C3(C)C)=C2Cl)N(CCCCS(=O)(=O)[O-])c2ccccc21.[Na+] [IR783]
Uptake (RAW): Very low
Uptake [1]: Strong
Uptake (H358): Strong
Uptake (P69): Very low
Uptake (RT-4, T24, 253J, TCC): Strong
Uptake (RCC): Strong
imaging of spontaneous prostate tumor ([2]; 24 hours after administration): could be imaged
dye retention in formalin fixed tissues ([2]; data not shown): several weeks
tolerance of dye accumulation in tumors to fixation ([2]; mouse, in vivo): can tolerate fixation with both paraformaldehyde and glutaraldehyde
Uptake [3]: Strong
dye in normal organs removed from hosts ([4]; fluorescence imaging of all organs, data not shown): lack of uptake of the dye in normal organs
dye in metabolically active C4-2 tumors in mouse tibia ([4]; mouse, in vivo): retained the dye
dye retention in necrotic tumors on the contralateral side ([4]; mouse, in vivo): did not
smallest tumor size detected ([4]; orthotopic or bone metastatic lesions, data not shown): ~2 mm^3
uptake by xenografts and metastatic bone lesions ([4]; subcutaneous and intra-tibial sites of nude mice, 0.2 μg/kg i.p, 24 hours): preferentially taken up
toxicity ([5]; 20 μg/Kg (100× of the imaging dose), 28 day period): not toxic
body weight ([5]; dose 1X (imaging dose 0.2 μg/Kg), 0 day): 20.29 g
body weight ([5]; dose 1X, 1 day): 20.20 g
body weight ([5]; dose 1X, 2 day): 20.23 g
body weight ([5]; dose 1X, 3 day): 20.32 g
body weight ([5]; dose 1X, 4 day): 20.34 g
body weight ([5]; dose 1X, 5 day): 21.00 g
body weight ([5]; dose 1X, 6 day): 21.87 g
body weight ([5]; dose 1X, 7 day): 22.32 g
body weight ([5]; dose 1X, 14 day): 23.91 g
body weight ([5]; dose 1X, 28 day): 24.86 g
body weight ([5]; dose 10X, 0 day): 20.57 g
body weight ([5]; dose 10X, 1 day): 20.61 g
body weight ([5]; dose 10X, 2 day): 20.59 g
body weight ([5]; dose 10X, 3 day): 20.98 g
body weight ([5]; dose 10X, 4 day): 21.02 g
body weight ([5]; dose 10X, 5 day): 21.34 g
body weight ([5]; dose 10X, 6 day): 21.76 g
body weight ([5]; dose 10X, 7 day): 22.54 g
body weight ([5]; dose 10X, 14 day): 24.01 g
body weight ([5]; dose 10X, 28 day): 24.87 g
body weight ([5]; dose 100X (20 μg/Kg), 0 day): 19.85 g
body weight ([5]; dose 100X, 1 day, zero grams means the mouse died): 19.74 g
body weight ([5]; dose 100X, 2 day, zero grams means the mouse died): 20.01 g
body weight ([5]; dose 100X, 3 day, zero grams means the mouse died): 20.39 g
body weight ([5]; dose 100X, 4 day, zero grams means the mouse died): 20.43 g
body weight ([5]; dose 100X, 5 day, zero grams means the mouse died): 21.01 g
body weight ([5]; dose 100X, 6 day, zero grams means the mouse died): 21.23 g
body weight ([5]; dose 100X, 7 day, zero grams means the mouse died): 22.00 g
body weight ([5]; dose 100X, 14 day, zero grams means the mouse died): 23.76 g
body weight ([5]; dose 100X, 28 day, zero grams means the mouse died): 24.61 g
Uptake (MCF-7): Strong
Uptake (HEK293): Low
distribution in renal tissue, confocal microscopy ([6]; tissues incubated with IR783, washed): concentrated in renal cancer but not normal kidney cells
fluorescence imaging of tumor regions ([6]; tumor, transitional and normal sections): intense uptake and retention
effect on pre-established tumors (C4-2 tumors): induced marked cell death, with tumors almost eliminated at Day 5
Uptake (BMC): Very low
Uptake (SN12C, ACHN): Strong
uptake by cancer cells at 0° C. ([7]; 0° C., data not shown): no uptake
uptake, ARCaPM compared with P69 ([7]; 50 μM, 37° C., 30 min): only in the cancer cells
effect of BSP on uptake by ARCaPM cells ([7]; 100 μM BSP pre-incubation, 50 μM IR783): inhibited by BSP; also recorded: completely abolished
time dependence of uptake ([7]; ARCaPM, FIG. 14): time-dependent fashion
dose dependence of uptake ([7]; ARCaPM, data not shown): dose-dependent fashion
Uptake (HepG2): Strong
Uptake (HeLa): Strong

From patent publication US11738095B2, “Cyanine-containing compounds for cancer imaging and treatment” (Emory University, priority 2007, dated 2023)
